Data reported in patent US5073563A, “Alkoxycoumarins substituted by a heterocyclic radical, their preparation and therapeutic agents containing these compounds” (BASF Aktiengesellschaft, priority 1988, dated 1991).

Key:
[1] = molecular target: T1, MAO B (Rattus norvegicus, UniProt P19643); assay: MAO B inhibition in dilute rat brain homogenate (14C substrate, 20 min at 37° C); type: biochemical; details: for IC50 ratio MAO A / MAO B: quotient of IC50 MAO A and IC50 MAO B (selectivity for MAO B), 20 min; for IC50: rat brain homogenate, 14C-phenylethylamine or 14C-tryptamine 0.4 μmol/l, 20 minutes at 37° C, logit-log regression
T1 construct: determined in dilute rat brain homogenate; from tissue; host or cells: rat brain homogenate
T1 sequence (P19643 1-520): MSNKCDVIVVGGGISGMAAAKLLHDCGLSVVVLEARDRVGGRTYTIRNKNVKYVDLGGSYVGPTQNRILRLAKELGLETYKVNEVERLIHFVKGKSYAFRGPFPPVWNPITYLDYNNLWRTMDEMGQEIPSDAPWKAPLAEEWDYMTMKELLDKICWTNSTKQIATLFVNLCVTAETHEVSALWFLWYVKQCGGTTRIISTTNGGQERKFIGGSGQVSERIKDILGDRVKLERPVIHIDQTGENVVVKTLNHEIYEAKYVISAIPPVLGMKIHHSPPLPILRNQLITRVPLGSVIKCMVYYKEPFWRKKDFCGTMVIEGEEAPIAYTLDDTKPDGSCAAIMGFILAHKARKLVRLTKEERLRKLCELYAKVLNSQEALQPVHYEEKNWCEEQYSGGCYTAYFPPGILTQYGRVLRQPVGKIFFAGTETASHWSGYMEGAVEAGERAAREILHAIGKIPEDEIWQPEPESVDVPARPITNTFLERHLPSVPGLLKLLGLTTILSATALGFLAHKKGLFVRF
Method: (§1) The MAO-inhibiting activity of the novel compounds can be determined using standard methods. […] The mixture was incubated for 20 minutes at 37° C.
(§2) The blank value was determined in similar mixtures with an incubation time of t=0 min.
(§3) From the inhibitory values determined at the various inhibitor concentrations against a control, the mean inhibitory concentration (IC50) was calculated by linear regression following logit-log transformation.

[2] = molecular target: T2, MAO A (Rattus norvegicus, UniProt P21396); assay: MAO A inhibition in dilute rat brain homogenate (14C substrate, 20 min at 37° C); type: biochemical; details: 14C-phenylethylamine or 14C-tryptamine 0.4 μmol/l, logit-log regression
T2 construct: determined in dilute rat brain homogenate; from tissue; host or cells: rat brain homogenate
T2 sequence (P21396 1-526): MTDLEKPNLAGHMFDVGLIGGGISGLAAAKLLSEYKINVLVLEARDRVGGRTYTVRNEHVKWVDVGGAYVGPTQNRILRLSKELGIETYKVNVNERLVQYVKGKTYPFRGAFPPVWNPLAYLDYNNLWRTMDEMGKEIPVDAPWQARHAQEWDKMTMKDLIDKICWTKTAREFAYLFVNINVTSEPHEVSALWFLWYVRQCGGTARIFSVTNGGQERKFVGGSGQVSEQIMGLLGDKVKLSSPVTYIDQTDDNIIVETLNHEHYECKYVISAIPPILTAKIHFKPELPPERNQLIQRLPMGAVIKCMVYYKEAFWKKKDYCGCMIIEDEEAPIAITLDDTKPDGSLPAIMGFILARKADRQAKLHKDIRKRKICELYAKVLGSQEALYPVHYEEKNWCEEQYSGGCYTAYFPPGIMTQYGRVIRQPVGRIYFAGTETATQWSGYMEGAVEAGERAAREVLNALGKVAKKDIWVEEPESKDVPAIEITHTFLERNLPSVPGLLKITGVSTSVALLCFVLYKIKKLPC
Method: as §1, §2, §3

Row | IC50 ratio MAO A / MAO B [1] | IC50 [1] | IC50 [2] | Compound
1 | 1200 | 3 nM | 3600 nM | Cc1nnc(COc2ccc3c(C)c(C)c(=O)oc3c2)s1 [Example 2, 3,4-Dimethyl-7-(2-methyl-1,3,4-thiadiazol-5-yl)-methoxycoumarin]
2 | > 667 | 15 nM | > 10000 nM | Cc1nnc(COc2ccc3cc(C)c(=O)oc3c2)s1 [Example 13, 3-Methyl-7-(2-methyl-1,3,4-thiadiazol-5-yl)-methoxycoumarin]
3 | ~ 7100 | 1.4 nM | ~10000 nM | Cc1c(C)c2ccc(OCc3csc(C4CC4)n3)cc2oc1=O [Example 80, 7-(2-Cyclopropylthiazol-4-yl)-methoxy-3,4-dimethylcoumarin]
4 | ~ 32000 | 0.61 nM | ~20000 nM | Cc1c(C)c2ccc(OCc3cc(C4(C)CC4)no3)cc2oc1=O [Example 96]
5 | ~ 5900 | 1.7 nM | ~10000 nM | CCCc1cc(COc2ccc3c(C)c(C)c(=O)oc3c2)on1 [Example 4, 3,4-Dimethyl-7-(3-n-propylisoxazol-5-yl)-methoxycoumarin]
6 | > 1000 | 10 nM | > 10000 nM | CC(C)c1cc(COc2ccc3c4c(c(=O)oc3c2)CCCC4)nn1C [Example 55, 7-(5-Isopropyl-1-methylpyrazol-3-yl)-methoxy-3,4-tetramethylenecoumarin]
7 | ~ 8200 | 0.73 nM | ~6000 nM | Cc1c(C)c2ccc(OCc3cc(C(C)C)no3)cc2oc1=O [Example 33, 7-(3-Isopropylisoxazol-5-yl)-methoxy-3,4-dimethylcoumarin]
8 | ~ 900 | 11 nM | ~10000 nM | CCc1nnc(COc2ccc3c(C)c(C)c(=O)oc3c2)o1 [Example 7, 7-(2-Ethyl-1,3,4-oxadiazol-5-yl)-methoxy-3,4-dimethylcoumarin]
9 | > 4500 | 2.2 nM | > 10000 nM | Cc1c(C)c2ccc(OCc3cc(C(C)C)n(C)n3)cc2oc1=O [Example 29, 7-(5-Isopropyl-1-methylpyrazol-3-yl)-methoxy-3,4-dimethylcoumarin]
10 | > 700 | 14 nM | > 10000 nM | Cc1c(C)c2ccc(OCc3cc(C4CCCCC4)no3)cc2oc1=O [Example 87, 7-(3-Cyclohexylisoxazol-5-yl)-methoxy-3,4-dimethylcoumarin]
11 | > 10000 | 1 nM | > 10000 nM | Cc1nnc(COc2cc3oc(=O)c(Cl)c(C)c3cc2Cl)s1 [Example 101, 3,6-Dichloro-4-methyl-7-(5-methyl-1,3,4-thiadiazol-2-yl)-methoxycoumarin]
12 | > 1100 | 1.9 nM | > 10000 nM | Cc1c(C)c2ccc(OCc3cc(C4CC4)n(C)n3)cc2oc1=O [Example 61, 7-(5-Cyclopropyl-1-methylpyrazol-3-yl)-methoxy-3,4-dimethylcoumarin]
13 | ~ 930 | 4.3 nM | ~4000 nM | Cc1noc(COc2ccc3c(C)c(C)c(=O)oc3c2)n1 [Example 50, 3,4-Dimethyl-7-(3-methyl-1,2,4-oxadiazol-5-yl)-methoxycoumarin]
14 | ~ 7000 | – | ~10000 nM | Cc1c(C)c2ccc(OCc3csc(C(C)C)n3)cc2oc1=O [Example 75, 7-(2-Isopropylthiazol-4-yl)-methoxy-3,4-dimethylcoumarin]
15 | > 1100 | 9.1 nM | > 10000 nM | CCc1cc2c(C)c(C)c(=O)oc2cc1OCc1cc(C(C)C)n(C)n1 [Example 84, 6-Ethyl-7-(5-isopropyl-1-methylpyrazol-3-yl)-methoxy-3,4-dimethylcoumarin]
16 | > 7700 | 1.3 nM | – | Cc1c(C)c2ccc(OCc3nc(C(C)C)no3)cc2oc1=O [Example 26, 7-(3-Iospropyl-1,2,4-oxadiazol-5-yl)-methoxy-3,4-dimethylcoumarin]

Row | IC50 ratio MAO A / MAO B [1] | IC50 [1] | IC50 [2] | Compound
17 | ~ 3300 | 3 nM | ~10000 nM | Cc1nc(COc2ccc3c(C)c(C)c(=O)oc3c2)cs1 [Example 24, 3,4-Dimethyl-7-(2-methylthiazol-4-yl)-methoxycoumarin]
18 | ~ 4500 | 2.2 nM | ~10000 nM | Cc1c(C)c2ccc(OCc3cc(CC(C)C)no3)cc2oc1=O [Example 34, 7-(3-Isobutylisoxazol-5-yl)-methoxy-3,4-dimethylcoumarin]
19 | > 6700 | 1.5 nM | > 10000 nM | Cc1c(Cl)c(=O)oc2cc(OCc3cc(C(C)C)n(C)n3)ccc12 [Example 54, 3-Chloro-7-(5-isopropyl-1-methylpyrazol-3yl)-methoxy-4-methylcoumarin]
20 | > 9100 | 1.1 nM | > 10000 nM | Cc1nnc(COc2cc3oc(=O)c(C)c(C)c3cc2Br)s1 [Example 67, 6-Bromo-3,4-dimethyl-7-(2methyl-1,3,4-thiadiazol-5-yl)-methoxycoumarin]
21 | 680 | 0.51 nM | 350 nM | Cc1ccc(COc2ccc3c(C)c(C)c(=O)oc3c2)s1 [Example 42, 3,4-Dimethyl-7-(2-methylthiophen-5-yl)-methoxycoumarin]
22 | ~ 8300 | 0.84 nM | ~7000 nM | Cc1c(C)c2ccc(OCc3cc(C4CC4)on3)cc2oc1=O [Example 58, 7-(5-Cyclopropylisoxazol-3-yl)-methoxy-3,4-dimethylcoumarin]
23 | 2400 | 1.2 nM | 2900 nM | COC(C)c1cc(COc2ccc3c(C)c(C)c(=O)oc3c2)on1 (centres unmarked) [Example 79, 7-[3-(1-Methoxyethyl)-isoxazol-5-yl]-methoxy-3,4-dimethylcoumarin]
24 | ~ 2200 | 4.6 nM | ~10000 nM | COCc1cc(COc2ccc3c(C)c(C)c(=O)oc3c2)on1 [Example 6, 7-(3-Methoxymethylisoxazol-5-yl)-methoxy-3,4-dimethylcoumarin]
25 | 370 | – | – | Cc1nnc(COc2ccc3c(C)c(C)c(=O)oc3c2)o1 [Example 1, 3,4-Dimethyl-7-(2-methyl-1,3,4-oxadiazol-5-yl)-methoxycoumarin]
26 | 580 | 5.5 nM | 3200 nM | Cc1c(C)c2ccc(OCc3csc(Cc4ccccc4)n3)cc2oc1=O [Example 74, 7-(2-Benzylthiazol-4-yl)-methoxy-3,4-dimethylcoumarin]
27 | > 11000 | 0.92 nM | > 10000 nM | Cc1c(C)c2ccc(OCc3cc(C(C)(C)C)no3)cc2oc1=O [Example 35, 7-(3-tert-Butylisoxazol-5-yl)-methoxy-3,4-dimethylcoumarin]
28 | 710 | 2.1 nM | 1500 nM | Cc1cc(COc2ccc3c(C)c(C)c(=O)oc3c2)on1 [Example 3, 3,4-Dimethyl-7-(3-methylisoxazol-5-yl)-methoxycoumarin]
29 | > 13000 | 0.77 nM | > 10000 nM | Cc1c(C)c2ccc(OCc3cc(C4CCC4)no3)cc2oc1=O [Example 68, 7-(3-Cyclobutylisoxazol-5-yl)-methoxy-3,4-dimethylcoumarin]
30 | > 13000 | 0.74 nM | > 10000 nM | Cc1c(C)c2cc(Cl)c(OCc3ccccn3)cc2oc1=O [Example 100, 6-Chloro-3,4-dimethyl-7-(2-pyridinyl)-methoxycoumarin]
31 | > 1400 | 7.1 nM | > 10000 nM | Cc1nnc(COc2ccc3c4c(c(=O)oc3c2)CCCC4)s1 [Example 32, 3,4-Tetramethylen-7-(2-methyl-1,3,4-thiadiazol-5-yl)-methoxycoumarin]
32 | ~ 8300 | 1.2 nM | ~10000 nM | Cc1c(C)c2ccc(OCc3nnc(C4CC4)s3)cc2oc1=O [Example 94, 3,4-Dimethyl-7-(2-cyclopropyl-1,3,4-thiadiazol-5yl)-methoxycoumarin]
